Tests used:
[1] = biological target: T1, PPARγ (Homo sapiens, UniProt P37231); test: PPARγ reporter functional assay in CV1 cells; format: cell-based; conditions: examined up to 10 μM, luciferase reporter, 24 hours
T1 sequence (P37231 1-505): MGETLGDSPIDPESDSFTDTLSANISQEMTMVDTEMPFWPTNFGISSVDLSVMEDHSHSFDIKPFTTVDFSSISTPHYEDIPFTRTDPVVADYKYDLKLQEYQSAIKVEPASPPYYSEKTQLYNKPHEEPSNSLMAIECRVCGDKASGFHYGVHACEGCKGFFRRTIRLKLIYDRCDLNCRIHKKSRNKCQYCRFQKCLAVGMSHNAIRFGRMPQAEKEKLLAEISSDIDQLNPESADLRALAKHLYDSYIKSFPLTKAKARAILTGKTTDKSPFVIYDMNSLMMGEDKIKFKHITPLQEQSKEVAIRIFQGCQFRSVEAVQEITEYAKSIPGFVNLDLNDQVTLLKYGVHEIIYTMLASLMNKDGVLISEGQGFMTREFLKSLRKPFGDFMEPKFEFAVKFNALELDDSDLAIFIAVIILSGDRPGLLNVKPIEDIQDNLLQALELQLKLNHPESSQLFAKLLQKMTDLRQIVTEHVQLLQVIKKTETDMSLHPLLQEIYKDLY
T1 sequence (P19793 1-462 partner): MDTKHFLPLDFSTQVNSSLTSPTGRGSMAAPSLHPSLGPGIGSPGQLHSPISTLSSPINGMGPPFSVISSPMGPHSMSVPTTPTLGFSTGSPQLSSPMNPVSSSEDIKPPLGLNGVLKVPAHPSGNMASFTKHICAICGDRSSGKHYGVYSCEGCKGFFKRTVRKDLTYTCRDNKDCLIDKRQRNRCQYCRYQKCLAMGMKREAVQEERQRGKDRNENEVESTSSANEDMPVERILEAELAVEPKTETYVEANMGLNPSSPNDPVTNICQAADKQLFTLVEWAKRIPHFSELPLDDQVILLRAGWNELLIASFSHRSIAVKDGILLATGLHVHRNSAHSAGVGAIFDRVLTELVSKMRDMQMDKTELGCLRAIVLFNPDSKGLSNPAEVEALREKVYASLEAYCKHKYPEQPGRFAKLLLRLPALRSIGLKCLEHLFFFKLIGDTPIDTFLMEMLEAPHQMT
Description: Gal4 PPARα, Gal4 PPARδ, and PPARγ reporter functional assays are also used to monitor the selectivity of exemplified compounds. CV1 cells, which are derived from the renal tissue of an African green monkey, are transfected with various receptor and reporter plasmids using Fugene. For the Gal4 PPARα and PPARδ assays, a reporter plasmid containing five tandem copies of the yeast transcription protein Gal4 response element, cloned upstream of a firefly luciferase gene driven by the major late promoter of adenovirus, is transfected together with a Simian Virus 40 (SV40) driven plasmid constitutively expressing a hybrid protein containing the Gal4 DNA binding domain (DBD), and either the PPARα or PPARδ ligand binding. For the PPARγ assay, plasmids encoding PPARγ and RXRα, both driven by a cytomegalovirus (CMV) promoter are transfected together with a plasmid containing luciferase reporter cDNA driven by the TK promoter and a receptor response element (2×PPRE). Cells are transfected in T225 cm^2 cell culture flasks in DMEM media with 5% charcoal-stripped FBS. […] After 24 hours incubation with compounds, cells are lysed and luciferase activity is determined as a measure of receptor activation by luminescence. […] The maximum percent stimulation is determined versus maximum stimulation obtained with 10 μM of an appropriate PPAR agonist reference compound. […]

[2] = tested on: Male Balb/c mice; test: Intraperitoneal Glucose Tolerance Test (IPGTT); format: in vivo, mouse; conditions: oral
Description: To examine the ability of exemplified compounds to activate GPR40 in-vivo resulting in anti-diabetic efficacy, i.e. an increase in insulin and reduction in glucose levels, a 4-day intraperitoneal glucose tolerance test (ipGTT) study is completed with each compound tested in the IPGTT.
Male Balb/c (Albino mice) mice (8-9 weeks of age) are single housed and fed with normal rodent chow diet and water ad libitum. Animals are weighed and randomized by body weight and daily body weights are recorded. Upon study initiation, animals are dosed once per day orally for three days using a formulation carrying methylcellulose and tween-80. On the night before the 4-day IPGTT study, animals are fasted overnight in clean cages. On the morning of the IPGTT (Day 4), animals are dosed orally with compound or vehicle alone 60 minutes prior to the IPGTT (glucose 2 g/kg, i.p.). Blood glucose levels are determined from tail bleeds taken at 0, 3, 7, 15, 30, and 60 min after glucose challenge. Plasma is isolated and used to estimate respective insulin levels. The blood glucose excursion profile from t=0 to t=60 min is used to integrate an area under the curve (AUC) for each treatment. Percent lowering in glucose is calculated from the AUC data of the compounds with respect to the AUC of vehicle group. The test compound is orally administered at 0.1, 0.3, 1.0, 3.0, or 10 mg/kg, and a positive control is administered at 10 mg/kg.

[3] = Example 1 at 0.1, 0.3, 1.0 and 3.0 mg/kg, positive control 10 mg/kg

CC#C[C@@H](CC(=O)O)c1ccc(OCc2ccc(CN3CCC4(C=Cc5ccccc54)CC3)s2)cc1 [Example 1, (3S)-3-[4-[[5-(Spiro[indene-1,4′-piperidine]-1′-ylmethyl)-2-thienyl]methoxy]phenyl]hex-4-ynoic acid]
functional activation of PPARγ [1]: No functional activation | ED50 ([2]; Mus musculus, once per day, 4-day study, glucose 2 g/kg i.p., AUC t=0 to 60 min, read-out: ED50 based on AUCs for glucose lowering): 0.21 mg/kg | glucose levels at the 3 minute time point ([2]; Example 1 0.1, 0.3, 1.0, 3.0 or 10 mg/kg, positive control 10 mg/kg): No concentration of the compound of Example 1 or the positive control significantly lowered glucose levels | glucose levels at the 15 minute time point ([2]; Example 1 at 0.1, 0.3, 1.0 and 3.0 mg/kg): significantly lowered | glucose levels at the 30 minute time point [2, 3]: significantly lowered | glucose levels at the 60 minute time point [2, 3]: significantly lowered | glucose levels at the 7 minute time point ([2]; Example 1 at 0.3, 1.0, 3.0 and 10 mg/kg, positive control 10 mg/kg): significantly lowered | insulin levels ([2]; at the 3.0 and 10.0 mg/kg dose): significantly elevated

From patent publication US8822486B2, “Spiropiperidine compounds” (Eli Lilly and Company, priority 2009, dated 2014)
